The values that follow come from US10239859B2, “Nitrogen-containing heterocycles as pesticides” (Bayer CropScience Aktiengesellschaft, priority 2015, dated 2019).

Like-named read-outs stand apart in the source and are kept apart here.

Data set [1] can be described thus: log P determination by HPLC on reversed-phase C18 columns (OECD Guideline 117). It is filed as physicochemical. On the procedure: The log P values were determined in accordance with OECD Guideline 117 (EC Directive 92/69/EEC) by HPLC (high-performance liquid chromatography) using reversed-phase (RP) columns (C18), by the following methods:
[a] The LC-MS determination in the acidic range is effected at pH 2.7 with 0.1% aqueous formic acid and acetonitrile (contains 0.1% formic acid) as eluents; linear gradient from 10% acetonitrile to 95% acetonitrile.
[b] LC-MS determination in the neutral range is effected at pH 7.8 with 0.001 molar aqueous ammonium hydrogencarbonate solution and acetonitrile as eluents; linear gradient from 10% acetonitrile to 95% acetonitrile.

Another data set relates to Lucilia cuprina. As to the kind of experiment: Lucilia cuprina test. It is filed as in vivo. To be noted: 100 ppm, L1 larvae, after 2 days. As to the method: (§1) Solvent: dimethyl sulphoxide
To produce a suitable active compound preparation, 10 mg of active compound are mixed with 0.5 ml of dimethyl sulphoxide, and the concentrate is diluted with water to the desired concentration.
About 20 L1 larvae of the Australian sheep blowfly (Lucilia cuprina) are transferred into a test vessel containing minced horsemeat and the active compound preparation of the desired concentration.
After 2 days, the kill in % is determined. 100% means that all the larvae have been killed; 0% means that no larvae have been killed.

Another data set deals with Myzus persicae. Nature of the data set: Myzus persicae spray test (Chinese cabbage leaf discs). The class given is in vivo. To be noted: after 6 days. On the procedure:
Myzus persicae—Spray Test
Solvent: 78 parts by weight of acetone • • 1.5 parts by weight of dimethylformamide
(§2) Emulsifier: alkylaryl polyglycol ether
(§3) To produce a suitable active compound preparation, 1 part by weight of active compound is dissolved with the stated parts by weight of solvent and made up with water containing an emulsifier concentration of 1000 ppm until the desired concentration is attained. To produce further test concentrations, the preparation is diluted with emulsifier-containing water.
Discs of Chinese cabbage leaves (Brassica pekinensis) infested by all stages of the green peach aphid (Myzus persicae) are sprayed with an active compound preparation of the desired concentration.
After 6 days, the efficacy in % is determined. 100% means that all the aphids have been killed; 0% means that no aphids have been killed.

Another data set concerns Phaedon cochleariae. As to the kind of experiment: Phaedon cochleariae spray test. It is filed as in vivo. To be noted: 500 g/ha, larvae on Chinese cabbage leaf discs, after 7 days. On the procedure: Phaedon cochleariae—Spray Test
(§4) Solvent: 78.0 parts by weight of acetone • • 1.5 parts by weight of dimethylformamide
as §2, §3
After 7 days, the efficacy in % is determined. 100% means that all the beetle larvae have been killed; 0% means that no beetle larvae have been killed.

The next data set concerns Tetranychus urticae. Nature of the data set: Tetranychus urticae spray test, OP-resistant. The class given is in vivo. To be noted: 500 g/ha, bean leaf discs, after 6 days. On the procedure:
Tetranychus urticae—Spray Test, OP-Resistant
as §4, §2, §3
Discs of bean leaves (Phaseolus vulgaris) infested with all stages of the greenhouse red spider mite (Tetranychus urticae) are sprayed with an active compound preparation of the desired concentration.
After 6 days, the efficacy in % is determined. 100% means that all the spider mites have been killed; 0% means that no spider mites have been killed.

For another data set, the system named is Ctenocephalides felis. Nature of the data set: Ctenocephalides felis oral test. The class given is in vivo. As to conditions: 100 ppm in citrated cattle blood, adult cat fleas, after 2 days. As to the method: Ctenocephalides felis—Oral Test
as §1
To produce a suitable active compound preparation, 10 mg of active compound are mixed with 0.5 ml of dimethyl sulphoxide. Dilution with citrated cattle blood gives the desired concentration.
About 20 unfed adult cat fleas (Ctenocephalides felis) are placed into a chamber which is closed at the top and bottom with gauze. A metal cylinder whose bottom end is closed with parafilm is placed onto the chamber. The cylinder contains the blood/active compound preparation, which can be imbibed by the fleas through the parafilm membrane.
After 2 days, the kill in % is determined. 100% means that all of the fleas have been killed; 0% means that none of the fleas have been killed.

Where [2] appears, read: reversed-phase C18 HPLC column, acidic range, pH 2.7, 0.1% aqueous formic acid / acetonitrile, read-out: logP value (HCOOH).
Setting [3] is: reversed-phase C18 HPLC column, neutral range, pH 7.8, 0.001 molar aqueous ammonium hydrogencarbonate / acetonitrile, read-out: LogP value (neutral).

For `FC(F)(F)c1ccc(-n2ccccc2=S)cn1` [VI-2, 6′-trifluoromethyl-[1(2H),3′-bipyridine]-2-thione], in data set [1] (setting [2]), the chromatographic logP amounted to 1.7.

On to `O=c1ccccn1-c1ccc(C(F)(F)C(F)(F)C(F)(F)F)nc1` [IV-31, 6′-Heptafluoropropyl-[1(2H),3′-bipyridin]-2-one], for which, in data set [1] (acidic range, pH 2.7, 0.1% aqueous formic acid / acetonitrile, read-out: logP value (HCOOH)), the chromatographic logP is 2.26.

Take `O=c1ccccn1-c1ccc(Br)nc1` [IV-2, 6′-Bromo-[1(2H), 3′-bipyridin]-2-one]: in data set [1] (setting [2]), the chromatographic logP was found to be 0.95. Same read-out and setting: with `O=c1ccccn1-c1ccc(C(F)(F)F)nc1` [IV-1, 6′-Trifluoromethyl-[1(2H),3′-bipyridin]-2-one] the figure was 1.26. Take `O=C(/C=C1\C=CC=CN1c1ccc(C(F)(F)F)nc1)C(F)(F)F` [Example 4, (3E)-3-[1-(6-Trifluoromethyl-3-pyridinyl)-2(1H)-pyridinylidene]-1,1,1-trifluoro-2-propanone]: in the data set on Lucilia cuprina, the “efficacy (kill)” value is given as 100%. Besides, in the data set on Myzus persicae (500 g/ha), the efficacy is recorded as 90%. For the same compound, the chromatographic logP in data set [1] (setting [2]) stood at 2.2. Regarding `Cc1ccc(-n2ccccc2=S)cn1` [VI-1, 6′-Methyl-[1(2H),3′-bipyridine]-2-thione], the chromatographic logP in data set [1] (setting [2]) was found to be 0.51. Same read-out and setting: with `O=c1ccccn1-c1ccc(C(F)(C(F)(F)F)C(F)(F)F)nc1` [IV-32, 6′-(1,1,1,2,3,3,3-Heptafluoropropyl)-[1(2H), 3′-bipyridin]-2-one] the figure was 2.4.

Regarding `N#C/N=c1\ccccn1-c1ccc(Br)nc1` [Example 2, [1-[6-Bromopyridin-3-yl]-2(1H)-pyridinylidene]cyanamide], the efficacy with Myzus persicae (100 g/ha) was 90%. For the same compound, the chromatographic logP in data set [1] (setting [2]) is 1.07. Consider `S=c1ccccn1-c1ccc(-n2cnc(Cl)n2)nc1` [VI-5, 6′-(3-Chloro-1,2,4-triazol-1-yl)-[1(2H), 3′-bipyridine]-2-thione], for which the chromatographic logP in data set [1] (setting [3]) worked out at 1.58. As for `O=c1ccccn1-c1ccc(-n2cnc(Cl)n2)nc1` [IV-29, 6′-(3-Chloro-1,2,4-triazol-1-yl)-[1(2H), 3′-bipyridin]-2-one], in data set [1] (setting [2]), the chromatographic logP is 1.23. Take `Cc1ccc(-n2cccc/c2=N\C#N)cn1` [Example 3, [1-[6-Methylpyridin-3-yl]-2(1H)-pyridinylidene]cyanamide]: the efficacy is reported as 90% in the data set with Myzus persicae (100 g/ha) and 100% in the data set on Phaedon cochleariae. Besides, in data set [1] (setting [2]), the chromatographic logP is 0.46. In the case of `O=C(/N=c1\ccccn1-c1ccc(C(F)(F)F)nc1)C(F)(F)F` [Example 7], in the data set on Lucilia cuprina, the “efficacy (kill)” value is on record as 95%. The efficacy in the data set with Myzus persicae (500 g/ha) stood at 100%. Besides, in data set [1] (setting [2]), the chromatographic logP came out at 2.19.

For the compound `N#C/N=c1\ccccn1-c1ccc(C(F)(F)F)nc1` [Example 1, [1-[6-Trifluoromethylpyridin-3-yl]-2(1H)-pyridinylidene]cyanamide], the efficacy in the data set with Tetranychus urticae, with Myzus persicae (500 g/ha) and with Phaedon cochleariae was 100% throughout. Also, the “efficacy (kill)” value in the data set on Ctenocephalides felis came out at 95%; with Lucilia cuprina it was 100%. For the compound “[1-[[6-(3-Trifluoromethylpyrazol-1-yl)pyridin-3-yl]-2-(1H)-pyridinylidene]cyanamide [Example 25]”, the “LogP value (neutral)” value in data set [1] (pH 7.8) stood at 2.23.

As for `N#C/N=c1\ccccn1-c1ccc(F)nc1` [Example 8, [1-[6-Fluoropyridin-3-yl]-2(1H)-pyridinylidene]cyanamide], the efficacy turned out to be 90% with Myzus persicae (500 g/ha) and 100% with Phaedon cochleariae. The chromatographic logP in data set [1] (setting [2]) stood at 0.7.

In the case of `O=c1ccccn1-c1ccc(Cl)nc1` [IV-14, 6′-chloro-[1(2H),3′-bipyridin]-2-one], the chromatographic logP in data set [1] (setting [2]) came to 0.67. The same measure, in the same setting: to `O=c1ccccn1-c1ccc(C(F)(F)C(F)(F)F)nc1` [IV-33, 6′-Pentafluoroethyl-[1(2H), 3′-bipyridin]-2-one] belongs 1.94.

In the case of `N#Cc1cccn(-c2ccc(Cl)nc2)c1=O` [IV-4, 1,2-Dihydro-2-oxo-1-(6-chloropyridin-3-yl)-3-pyridinecarbonitrile], the chromatographic logP in data set [1] (setting [2]) worked out at 1. In the case of `N#C/N=c1\ccccn1-c1ccc(-n2cnc(Cl)n2)nc1` [Example 24, [1-[6-(3-Chloro-1,2,4-triazol-1-yl)pyridin-3-yl]-2-(1H)-pyridinylidene]cyanamide], the chromatographic logP in data set [1] (setting [3]) is 1.39.
